{"source": "patent US12617804B2", "about": "“Conjugation-fused bipolar redox-active molecule, preparation method, and application thereof” (Hangzhou Normal University, priority 2021, dated 2026)", "key": {"[1]": {"assay": "Cyclic voltammetry (CV), TBA-TFSI supporting electrolyte in acetonitrile", "format": "physicochemical", "protocol": "Redox kinetics of QPT-OMe obtained in Embodiment 1 is tested by cyclic voltammetry (CV). Tetrabutylammonium bis(trifluoromethylsulfonyl)imide (TBA-TF SI) is used as a supporting electrolyte and acetonitrile as a solvent. The results are shown in FIG. 3, where two pairs of symmetrical cathodic and anodic peaks can be clearly observed. The half-wave potentials of −2.04 and 0.72 V (with respect to Ag^+/Ag) correspond to the reduction and oxidation reactions of QPT-OMe, respectively. The open-circuit voltage is about 2.76 V when using QPT-OMe as the active material in the RFB, which is one of the highest value for bipolar molecules so far.\nFurthermore, the QPT-OMe/QPT-OMe and QPT-P-OMe/QPT-OMe redox pairs show high rate constants of 1.4×10^−2 and 1.6×10-2 cm s^−1, respectively, by calculation. This is probably due to the relatively low recombination energy required for single electron transfer to occur from a large off-domain π-conjugated system. The high rate constants also imply negligible voltage loss when electrochemical reactions occur at the electrode surface.\nThe redox kinetics of QPT-TEG obtained in Embodiment 4 is tested by cyclic voltammetry (CV). Tetrabutylammonium bis(trifluoromethylsulfonyl)imide (TBA-TF SI) is used as a supporting electrolyte and acetonitrile as a solvent."}, "[2]": {"assay": "Miscibility of QPT-TEG with polar organic solvents", "format": "physicochemical", "details": "acetonitrile, dimethyl sulfoxide, dichloromethane and other solvents, in any ratio", "text": "The bipolar redox-active molecule with the above structure (QPT-TEG) is a […] fluid that is miscible with most polar organic solvents. QPT-TEG is able to increase the overall solubility of the molecule by introducing long ether chains without changing the redox potential of the designed redox subject molecule."}, "[3]": {"details": "with respect to Ag+/Ag, TBA-TFSI, acetonitrile"}}, "data": [{"molecule": "COc1ccc2c(c1)c(=O)c1cccc3c1n2-c1ccccc1S3", "note": "[QPT-OMe]", "values": [{"measurement": "electrochemical window", "setting": "[1]", "value": "~3", "unit": "V"}, {"measurement": "rate constant, QPT-OMe/QPT-OMe redox pair", "setting": "[1]; first-named redox pair, by calculation", "value": 0.014, "unit": "cm/s"}, {"measurement": "open-circuit voltage as active material in the RFB", "setting": "[1]; from the two half-wave potentials", "value": "about 2.76 V"}, {"measurement": "half-wave potential, oxidation reaction", "setting": "[1]; [3]", "value": 0.72, "unit": "V"}, {"measurement": "half-wave potential, reduction reaction", "setting": "[1]; [3]", "value": "−2.04", "unit": "V"}]}, {"molecule": "COCCOCCOCCOc1ccc2c(c1)c(=O)c1cccc3c1n2-c1ccccc1S3", "note": "[QPT-TEG]", "values": [{"measurement": "miscibility with solvents", "setting": "[2]", "value": "miscible"}, {"measurement": "redox behavior in CV", "setting": "[1]; compared with QPT-OMe, FIG. 5", "value": "basically the same as that of QPT-OMe"}]}]}
